# In publication PMC7115530 (European Journal of Medicinal Chemistry, 2012):
# Biological target: SARS-CoV 3CL^pro (Severe acute respiratory syndrome coronavirus, UniProt P0C6X7)
# Assay type: biochemical
smiles,measurement,value
CC(C)C[C@H](NC(=O)[C@@H](NC(=O)[C@H](C)NC(=O)OCc1ccccc1)C(C)C)C(=O)N[C@H](C#N)CCC(N)=O [Cbz-AVLQ-CN],increase in potency over the other inhibitors tested,~10 fold
